Source: patent publication US9328093B2, “Selective inhibitors of ubiquitin specific protease 7, the pharmaceutical compositions thereof and their therapeutic applications” (HYBRIGENICS SA, priority 2010, dated 2016)
Like-named read-outs stand apart in the source and are kept apart here.

Tests used:
[1] = molecular target: T1, USP7 (Homo sapiens, UniProt Q93009); assay: USP7 activity assay (Ub-AMC substrate); type: biochemical; conditions: Ub-AMC 300 nM, USP7 100 pM, 30 min pre-incubation
T1 construct: Full-length wild-type human USP7 and its catalytic mutant (cysteine 223 replaced by alanine, C223A) were produced as N-terminally His-tagged fusions; His (N); made in house; host or cells: Spodoptera frugiperda Sf9 (or High Five) insect cells, baculovirus pFastBac-HT-B
Source text: The cDNA encoding USP7 was obtained by PCR amplification from placenta mRNA. USP7 cDNA was subcloned by PCR into a baculovirus expression vector (pFastBac-HT; Invitrogen). Full-length wild-type human USP7 and its catalytic mutant (cysteine 223 replaced by alanine, C223A) were produced as N-terminally His-tagged fusions in Spodoptera frugiperda cells (Sf9, Invitrogen), using the Bac-to-Bac Baculovirus system from Invitrogen according to the manufacturer's instructions. pFastBac-HT-B-USP7 was used to transform DH10bac cells (Invitrogen), and blue/white selection was carried out on X-gal/IPTG agar plates. Bacmid DNA was prepared by an alkaline lysis procedure. The integrity of the bacmid minipreps and their orientation were checked by PCR, using generic and specific primers. Sf9 insect cells were cultured in InsectXpress medium (Cambrex) at 27° C. and transfected with the corresponding bacmid, using GeneShuttle 40 (Q-BIOgen). Viruses were recovered in the supernatant 72 h after transfection. Viruses were amplified by infecting insect cells (Sf9 or High Five cells; invitrogen) in 50 ml InsectXpress medium in a 150 cm^2 cell culture flask with 500 μl of the supernatant from transfected Sf9 cells. Following the second round of amplification, infected cells were recovered by rapid SDS lysis, boiled for 5 min at 100° C., sonicated briefly and centrifuged for 20 min at 14,000 g. Expression levels in infected Sf9 cells were compared with those in uninfected cells. Fusion proteins were then allowed to bind to TALON beads (BD Biosciences, TALON metal affinity resin) for 30 min at 4° C. with gentle rocking. Beads were extensively washed (50 mM sodium phosphate buffer pH 7.0, 500 mM NaCl, 10 mM Imidazole, 0.5% Triton X-100 and 10% glycerol) and bound proteins were eluted in wash buffer supplemented with 250 mM Imidazole (Sigma). Eluted fractions were resolved on 4-12% NuPAGE gels (Novex, Invitrogen). Fractions containing high concentrations of purified proteins (purity >95%) were dialyzed (20 mM Tris HCl pH 7.6, 200 mM NaCl, 1 mM DTT, 1 mM EDTA and 10% glycerol) were aliquoted and snap frozen in liquid nitrogen before storage at −80° C.
USP7 was diluted in USP buffer (50 mM Tris HCl; 0.5 mM EDTA; 5 mM DTT; 0.01% Triton X-100; Bovine Serum Albumin 0.05 mg·ml^−1 pH7.6). Compounds stocks (10 mM) were stored at −20° C. in DMSO. Compounds were tested at different concentrations: from 200 μM to 91 nM.
Reactions were performed as duplicates in Black 384 well plates (small volumes microplates; Greiner; 10 μl final reaction volume). The substrate concentration for USP7 was 300 nM Ub-AMC (Chem. Biol., 2003, 10, p. 837-846) (Boston Biochem). The concentrations of the enzyme (USP7) in specificity assays was 100 pM. The concentrations were determined in order to perform specificity assays under initial velocities at fixed substrate concentration. Compounds were pre-incubated with enzymes for 30 minutes at 25° C. Reactions were initiated by addition of substrate to the plates containing the enzymes (+/− compounds) diluted in assay buffer. Reactions were incubated for 60 minutes at 37° C. Reactions were stopped by adding acetic acid (100 mM final). Readings were performed on a Pherastar Fluorescent Reader (BMG). λ
Emission 380 nm; λ Excitation=460 nm. Data (mean values +/− standard deviation) were analyzed as % of control (no compound) and plotted as percentage versus the Log of the compound concentration using GraphPad (Prism). Data were fitted to a sigmoidal model (variable slope).

[2] = test system: HCT116 colon cancer cells; assay: HCT116 cell viability and proliferation assay (MTS); type: cell-based; conditions: HCT116, 72 hours, read-out: Cell viability (MTS): HCT116 GI50 Day3
Method: HCT116 colon cancer cells were obtained from ATCC (American Type Culture Collection), and maintained in Mc Coy's 5A medium containing 10% FBS, 3 mM glutamine and 1% penicillin/streptomycin. Cells were incubated at 37° C. in a humidified atmosphere containing 5% CO2.
Cell viability was assayed using the MTS technique in 96-well culture plates (CellTiter 96® Aqueous Non-Radioactive Cell Proliferation Assay, Promega) according to the manufacturer's instructions. MTS (3-(4,5-dimethyl-thiazol-2-yl)-5-(3-carboxy-methoxyphenyl)-2-(4-sulfophenyl)-2H-tetra-zolium) is a MTT-derived tetrazolium that is reduced in metabolically active cells into a soluble, cell-permeant formazan. The amount of formazan, detected by its absorbance at 492 nm is proportional to the number of living, metabolically active cells.
10^3 HCT116 cells were seeded per well. 24 hours later, the medium was changed and the cells treated in triplicate with the concentrations of each compound from 100 μM to 50 nM. The compounds were diluted in 100% DMSO, whose final concentration on cells was kept at 0.5%.
Cells were incubated with the compounds for 72 hours, and their viability then assayed by the addition of MTS for 2 hours. Absorbance at 492 nm was measured directly from the 96-well culture plates. Gl50 (Growth Inhibition 50) concentrations for each compound were calculated using a sigmoidal variable slope fit (Prism 4.0, Graphpad Softwares). Values represent mean of three independent experiments.

[3] = molecular target: T1, USP7; assay: USP7 assay with GST-Ub52-Flag substrate (HTRF); type: biochemical; conditions: USP7 200 pM
Method: (§1) For compounds 26 to 38, the in-vitro assays on USP7 and USP8 were carried out according to the following procedure
(§2) The present examples 26 to 38 makes it possible to validate the use of GST-Ub52-Flag in an assay based on the time-resolved measurement of fluorescence emitted by […] in homogenous medium.
(§3) The assay is carried out on multiwell assay plates. The plates are analyzed on a PHERAstar fluorimeter (BMG) after an overnight incubation at 4° C. (excitation 337 nm, emission 620 and 665 nm).
(§4) The reagents used were as follows: • Solution of USP7 at 200 pM and USP8 at 400 pM in 50 mM Tris HCl pH 7.6, Bovine Serum Albumin 0.05%, DTT 5 mM. • Anti-Flag-K (CIS bio international), solution at 0.2 μM in 0.8 M KF, 0.1 Bovine Serum Albumin, Tris HCl 25 mM pH 7.6. • Anti-GST antibody-XL665 conjugate (CIS bio international), solution at 2.6 μM in 0.8 M KF, 0.1% Bovine Serum Albumin, Tris HCl 25 mM pH 7.6. • GST-Ub52-flag solution at 14.75 μM & MBP_Ub52 at 37.7 μM are prepared by dilutions from the stock solution described above in 50 mM Tris HCl pH 7.6, EDTA 0.5 mM, Bovine Serum Albumin 0.05%, DTT 5 mM.
(§5) The enzyme reaction is carried out by mixing GST-Ub52-flag solution with 5 μl of USP7 solution (200 pM final) or 5 μl of USP8 (400 pM final). This mixture is incubated for one hour at room temperature on a multiwell assay plate. A 10 μl mixture of 5 μl of anti-Flag-K solution (0.2 μM) plus 5 μl of anti-GST-XL665 antibody (2.6 μM) is added to each well of the multiwell assay plate. The plate is read after an overnight incubation at 4° C. on a PHERAstar fluorimeter (BMG).
(§6) The decrease in the signal correlates with the increase in enzyme activity i.e. the cleavage of GST-Ub52-Flag substrate. The format used is therefore entirely suitable for a method of assaying an enzyme of the deubiquitinating type such as ubiquitin specific protease, but also for determining a modulator of this enzyme activity.
(§7) The same procedures as mentioned above for assaying the activity of enzymes of the deubiquitinating type are carried out but the various reaction mixtures are incubated with identical enzyme concentration, in the presence or absence of a test compounds 26 to 38. Data (mean values+/− standard deviation) were analyzed as % of control (no compound) and plotted as percentage versus the Log of the compound concentration using GraphPad (Prism).

[4] = molecular target: T2, USP8 (Homo sapiens, UniProt P40818); assay: USP8 assay with GST-Ub52-Flag substrate (HTRF); type: biochemical; conditions: USP8 400 pM
T2 construct: His (from pFastBac-HT vector) (N); made in house; host or cells: Sf9 or High Five insect cells, baculovirus
T2 sequence (P40818 1-1118): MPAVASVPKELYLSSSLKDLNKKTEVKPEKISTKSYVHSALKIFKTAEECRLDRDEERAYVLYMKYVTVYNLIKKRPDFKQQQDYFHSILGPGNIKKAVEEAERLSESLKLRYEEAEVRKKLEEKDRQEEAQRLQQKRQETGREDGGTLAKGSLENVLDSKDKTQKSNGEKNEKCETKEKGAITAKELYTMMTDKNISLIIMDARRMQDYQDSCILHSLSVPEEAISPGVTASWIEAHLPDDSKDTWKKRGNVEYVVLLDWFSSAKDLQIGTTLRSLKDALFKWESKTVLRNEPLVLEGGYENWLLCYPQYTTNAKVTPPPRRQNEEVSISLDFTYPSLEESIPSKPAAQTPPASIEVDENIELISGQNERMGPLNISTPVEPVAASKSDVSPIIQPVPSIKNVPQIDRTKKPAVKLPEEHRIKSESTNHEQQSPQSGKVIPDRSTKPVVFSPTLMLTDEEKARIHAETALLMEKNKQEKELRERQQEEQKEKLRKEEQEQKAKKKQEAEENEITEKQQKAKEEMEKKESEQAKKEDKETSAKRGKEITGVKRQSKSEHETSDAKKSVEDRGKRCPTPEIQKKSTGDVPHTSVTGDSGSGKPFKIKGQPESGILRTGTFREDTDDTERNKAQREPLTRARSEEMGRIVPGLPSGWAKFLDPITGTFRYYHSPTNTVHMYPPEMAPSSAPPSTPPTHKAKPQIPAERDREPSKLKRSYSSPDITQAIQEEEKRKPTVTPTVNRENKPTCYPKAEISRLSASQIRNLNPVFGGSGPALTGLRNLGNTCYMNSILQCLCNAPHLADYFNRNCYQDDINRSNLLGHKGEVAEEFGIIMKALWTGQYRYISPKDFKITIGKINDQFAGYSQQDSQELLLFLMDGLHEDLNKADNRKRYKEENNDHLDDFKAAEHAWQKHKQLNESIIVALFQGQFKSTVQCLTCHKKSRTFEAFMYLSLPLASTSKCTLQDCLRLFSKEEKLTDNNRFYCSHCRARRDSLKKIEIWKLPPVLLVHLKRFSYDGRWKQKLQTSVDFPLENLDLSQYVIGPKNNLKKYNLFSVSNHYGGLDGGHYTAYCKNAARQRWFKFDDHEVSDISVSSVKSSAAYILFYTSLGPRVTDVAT
Method: as §1, §2, §3, §4, §5, §6, §7

SMILES	IC50 [1] [µM]	GI50 [2] [µM]	IC50 [3] [µM]	IC50 [4] [µM]	GI50 ([2]; Homo sapiens, HCT-116, 72 h) [µM]
CCN(CC)CCNC(=O)c1ccc2c(Cl)c3c(nc2c1)CCCC3 [Example 26, chlorhydrate of 9-chloro-5,6,7,8-tetrahydro-acridine-3-carboxylic acid (2-diethylamino-ethyl)-amide]	30.5	5.6			
O=C(NCC1CCN(CCCc2ccccc2)CC1)c1ccc2c(Cl)c3c(nc2c1)CCCC3 [Example 33, 9-chloro-N-((1-(3-phenylpropyl)piperidin-4-yl)methyl)-5,6,7,8-tetrahydroacridine-3-carboxamide]			16.4	> 200	2
O=C(NCC1CCN(CCc2ccccc2)CC1)c1ccc2c(Cl)c3c(nc2c1)CCCC3 [Example 34, 9-chloro-N-((1-phenethylpiperidin-4-yl)methyl)-5,6,7,8-tetrahydroacridine-3-carboxamide]			24.5	> 200	2.8
CCN(CC)CCCC(C)NC(=O)c1ccc2c(Cl)c3c(nc2c1)CCCC3 (centres unmarked) [Example 35, 9-chloro-N-(5-(diethylamino)pentan-2-yl)-5,6,7,8-tetrahydroacridine-3-carboxamide]			36.9	> 200	8.2
CCN1CCC[C@@H]1CNC(=O)c1ccc2c(Cl)c3c(nc2c1)CCCC3 [Example 36, (R)-9-chloro-N-((1-ethylpyrrolidin-2-yl)methyl)-5,6,7,8-tetrahydroacridine-3-carboxamide]			44.4	> 200	9.1
CCN1CCC[C@H]1CNC(=O)c1ccc2c(Cl)c3c(nc2c1)CCCC3 [Example 37, (S)-9-chloro-N-((1-ethylpyrrolidin-2-yl)methyl)-5,6,7,8-tetrahydroacridine-3-carboxamide]			25.9	> 200	8.7
CN(C)CC(C)(C)CNC(=O)c1ccc2c(Cl)c3c(nc2c1)CCCC3 [Example 38, 9-chloro-N-(3-(dimethylamino)-2,2-dimethylpropyl)-5,6,7,8-tetrahydroacridine-3-carboxamide]			49.2	> 200	11
O=C(NCCCN1CCc2ccccc2C1)c1ccc2c(Cl)c3c(nc2c1)CCCC3 [Example 39, 9-chloro-N-(3-(3,4-dihydroisoquinolin-2(1H)-yl)propyl)-5,6,7,8-tetrahydroacridine-3-carboxamide]			38.5	> 200	7.6
